Measurements reported in the NIST ThermoML archive (doi:10.1021/acs.jced.7b01053).
Where “and” joins values, the source holds several entries; their conditions need not be identical. Equal entries are not always repeated.

Experiment: mn = molality of the nth substance listed, in mol/kg
Conditions: 293 K, 100 kPa, Liquid, Alternating current cell with electrodes

CC(=O)[O-].C[NH2+]CCO [N-methyl-2-hydroxyethylammonium acetate] + O
Conditions | electrical conductivity
m1 = 0.01579 | 0.077 S/m
m1 = 0.01797 | 0.09 S/m
m1 = 0.03269 | 0.14 S/m
m1 = 0.03539 | 0.162 S/m
m1 = 0.05165 | 0.21 S/m
m1 = 0.05369 | 0.236 S/m
m1 = 0.06943 | 0.29 S/m
m1 = 0.07132 | 0.318 S/m
m1 = 0.08822 | 0.356 S/m
m1 = 0.09023 | 0.385 S/m
m1 = 0.1063 | 0.507 S/m
m1 = 0.1084 | 0.453 S/m
m1 = 0.1255 | 0.561 S/m
m1 = 0.1264 | 0.551 S/m
m1 = 0.1433 | 0.607 S/m
m1 = 0.1458 | 0.612 S/m
m1 = 0.162 | 0.66 S/m
m1 = 0.1641 | 0.665 S/m
m1 = 0.1793 | 0.705 S/m
m1 = 0.1809 | 0.713 S/m
m1 = 0.1972 | 0.75 S/m
m1 = 0.1983 | 0.762 S/m
m1 = 0.2133 | 0.804 S/m
m1 = 0.2134 | 0.787 S/m
m1 = 0.2303 | 0.833 S/m
m1 = 0.2308 | 0.838 S/m
m1 = 0.2458 | 0.87 S/m
m1 = 0.246 | 0.877 S/m
m1 = 0.2615 | 0.899 S/m
m1 = 0.2616 | 0.861 S/m
m1 = 0.276 | 0.893 S/m
m1 = 0.2762 | 0.942 S/m
m1 = 0.2904 | 0.926 S/m
m1 = 0.2909 | 0.968 S/m
m1 = 0.3042 | 0.957 S/m
m1 = 0.3044 | 0.998 S/m
m1 = 0.3175 | 1.01 S/m
m1 = 0.3178 | 1.03 S/m
m1 = 0.3298 | 1.04 S/m
m1 = 0.3302 | 1.04 S/m
m1 = 0.3422 | 1.07 S/m
m1 = 0.3425 | 1.08 S/m
m1 = 0.354 | 1.11 S/m
m1 = 0.3542 | 1.1 S/m
m1 = 0.3654 | 1.13 S/m and 1.12 S/m
m1 = 0.376 | 1.16 S/m
m1 = 0.3765 | 1.15 S/m
m1 = 0.3868 | 1.17 S/m
m1 = 0.3967 | 1.19 S/m
m1 = 0.4065 | 1.21 S/m
m1 = 0.4155 | 1.24 S/m
m1 = 0.4245 | 1.27 S/m

CCCCC(=O)[O-].[NH3+]CCO [2-hydroxy ethylammonium pentanoate] + O
Conditions | electrical conductivity [S/m]
m1 = 0.01913 | 0.108
m1 = 0.01918 | 0.068
m1 = 0.03718 | 0.19
m1 = 0.03781 | 0.126
m1 = 0.05621 | 0.26
m1 = 0.05801 | 0.176
m1 = 0.07457 | 0.309
m1 = 0.07759 | 0.244
m1 = 0.09498 | 0.365
m1 = 0.09926 | 0.296
m1 = 0.1135 | 0.412
m1 = 0.1187 | 0.344
m1 = 0.1336 | 0.48
m1 = 0.1402 | 0.393
m1 = 0.152 | 0.526
m1 = 0.1594 | 0.439
m1 = 0.1718 | 0.578
m1 = 0.1796 | 0.483
m1 = 0.1899 | 0.625
m1 = 0.1981 | 0.523
m1 = 0.2067 | 0.661
m1 = 0.2174 | 0.664
m1 = 0.224 | 0.701
m1 = 0.2348 | 0.597
m1 = 0.24 | 0.739
m1 = 0.2529 | 0.637
m1 = 0.2565 | 0.776
m1 = 0.2697 | 0.669
m1 = 0.272 | 0.809
m1 = 0.2867 | 0.704
m1 = 0.2875 | 0.844
m1 = 0.302 | 0.875
m1 = 0.3024 | 0.734
m1 = 0.3165 | 0.904
m1 = 0.3181 | 0.759
m1 = 0.3299 | 0.93
m1 = 0.3329 | 0.786
m1 = 0.3434 | 0.957
m1 = 0.3474 | 0.812
m1 = 0.3561 | 0.983
m1 = 0.3608 | 0.832
m1 = 0.3685 | 1.01
m1 = 0.3744 | 0.855
m1 = 0.38 | 1.03
m1 = 0.3866 | 0.876
m1 = 0.3914 | 1.05
m1 = 0.3988 | 0.895
m1 = 0.402 | 1.07
m1 = 0.4101 | 0.917
m1 = 0.4126 | 1.09
m1 = 0.4215 | 0.925
m1 = 0.4221 | 1.11
m1 = 0.4316 | 1.13
m1 = 0.4318 | 0.94
m1 = 0.4404 | 1.14
m1 = 0.4421 | 0.957
m1 = 0.4517 | 0.971

CCCCC(=O)O.OCCNCCO [diethanolamine pentanoate] + O
Conditions | electrical conductivity [S/m]
m1 = 0.01462 | 0.055
m1 = 0.01705 | 0.064
m1 = 0.03093 | 0.108
m1 = 0.03218 | 0.116
m1 = 0.04874 | 0.161
m1 = 0.0491 | 0.168
m1 = 0.06476 | 0.204
m1 = 0.06559 | 0.215
m1 = 0.08109 | 0.279
m1 = 0.08267 | 0.268
m1 = 0.09793 | 0.328
m1 = 0.09939 | 0.312
m1 = 0.1159 | 0.375
m1 = 0.117 | 0.365
m1 = 0.1326 | 0.42
m1 = 0.133 | 0.408
m1 = 0.1488 | 0.449
m1 = 0.1507 | 0.47
m1 = 0.163 | 0.486
m1 = 0.1668 | 0.512
m1 = 0.1779 | 0.524
m1 = 0.1838 | 0.557
m1 = 0.1916 | 0.526
m1 = 0.1994 | 0.595
m1 = 0.2058 | 0.558
m1 = 0.2152 | 0.634
m1 = 0.2197 | 0.593
m1 = 0.2297 | 0.669
m1 = 0.2336 | 0.624
m1 = 0.2447 | 0.706
m1 = 0.2467 | 0.655
m1 = 0.2584 | 0.739
m1 = 0.26 | 0.685
m1 = 0.2721 | 0.767
m1 = 0.2723 | 0.711
m1 = 0.2848 | 0.739
m1 = 0.2851 | 0.795
m1 = 0.2965 | 0.755
m1 = 0.2976 | 0.822
m1 = 0.3079 | 0.789
m1 = 0.3096 | 0.848
m1 = 0.3188 | 0.811
m1 = 0.3214 | 0.874
m1 = 0.3321 | 0.896
m1 = 0.3396 | 0.835
m1 = 0.3428 | 0.918
m1 = 0.3494 | 0.854
m1 = 0.3527 | 0.94
m1 = 0.3585 | 0.876
m1 = 0.3625 | 0.96
m1 = 0.3675 | 0.893
m1 = 0.3716 | 0.979
m1 = 0.376 | 0.914
m1 = 0.3806 | 0.999
m1 = 0.3844 | 0.925
m1 = 0.389 | 1.01
m1 = 0.3921 | 0.925
m1 = 0.3973 | 1.03
m1 = 0.3997 | 0.925
m1 = 0.4069 | 0.973
m1 = 0.4446 | 0.991
